# Experimental data: paper PMC6748986, “Potent modulation of the CepR quorum sensing receptor and virulence in a Burkholderia cepacia complex member using non-native lactone ligands” (Scientific Reports, 2019)
# “And” between values parts separate entries of the source, which are not always exact repeats. Identical values can stand only once.
# What was measured:
# CepR = molecular target: T1, CepR (Burkholderia cenocepacia, UniProt B4EMD0); assay: CepR agonism in E. coli β-galactosidase reporter (Ec-reporter) JLD271 [pJN105-cepR + pSC11-cepI]; type: cell-based, B. cenocepacia; details: for EC50 / EC50 (nM): agonism dose-response; for Act% / activation at 100 µM: Table S2, Ec-reporter, screening conc. 100 μM; for Emax: read-out: Maximal Activation (%)
# T1 sequence (B4EMD0 1-239): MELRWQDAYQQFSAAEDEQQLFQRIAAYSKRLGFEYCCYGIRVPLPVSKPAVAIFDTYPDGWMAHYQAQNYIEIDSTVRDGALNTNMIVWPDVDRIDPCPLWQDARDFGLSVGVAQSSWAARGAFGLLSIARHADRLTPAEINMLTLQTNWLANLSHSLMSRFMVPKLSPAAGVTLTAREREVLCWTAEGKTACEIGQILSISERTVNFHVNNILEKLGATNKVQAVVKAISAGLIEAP
# Procedure, shortened: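 E. coli JLD271 (ΔsdiA) carrying arabinose-inducible CepR (27 mM L-arabinose) and cepI-lacZ fusion, grown 4 h with compound; β-galactosidase measured by CPRG cleavage at 37 °C (~30 min), normalized to OD600. Agonism compared with C8-AHL at 100 μM; screen at 100 μM or solubility limit, then dose-response; ≥3 trials.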
# LasR, RhlR, and QscR = assay: Comparison of activities in CepR vs. the three LuxR-type receptors in P. aeruginosa; details: preliminary analyses; comparison with earlier data ref 22, 24, 59
# From the text: To close, the compounds identified herein constitute new chemical tools to study QS in Bcc species in a variety of contexts. Given the strong conservation of CepR between Bcc members, we hypothesize our compounds will maintain their activity profiles across Bcc member species and we can begin to use them to assess the role of CepI/CepR QS on a broader scale. […] A next step moving forward will be to gauge the selectivity of the ligands identified herein for CepR over other LuxR-type receptors. […] Such compounds could allow for the selective targeting of QS in one organism in a mixed culture over time and allow for insights into the potential for interspecies interactions via QS and their effects on host health outcomes. Ongoing studies are focused in this arena, along with further delineating the mechanisms by which our CepR ligands agonize and antagonize CepR, and will be reported in due course.
# [1] = Ec-reporter, activity for 100 μM C8-AHL set to 100%, error ±10%
SMILES,EC50 (CepR; Ec-reporter),Emax (CepR; [1]) [%],activation at 100 µM (CepR) [%],"Selectivity for CepR over LasR, RhlR, QscR (LasR, RhlR, and QscR)",also measured
"CCCCCC(O)CC(=O)N[C@H]1CCOC1=O (stereo partly drawn) [3’OH-C8-AHL, reference compound]",210 nM,–,–,–,Maximal Activation (%) (CepR; [1]): 84%; Act% (CepR): 84%
CCCCCCCS(=O)(=O)N[C@H]1CCOC1=O [Compound A12],–,46,46,selective for CepR,CepR agonism in words (CepR; Ec-reporter): failed to activate CepR
O=C(CC1CCCC1)N[C@H]1CCOC1=O [Compound B12],–,–,39,–,–
"CCCCCCCC(=O)N[C@H]1CCOC1=O [Compound C8-AHL, N-octanoyl L-homoserine lactone, reference compound]",5 nM and 5.7 nM,100,100,–,EC50 fold higher in the Ec-reporter than in the Bm-reporter (CepR; Ec- vs Bm-reporter): ~ 10 fold
O=C(Cc1cccc(Br)c1)N[C@H]1CCOC1=O [Compound C8],–,–,–,–,Act% (CepR): 12%
O=C(Cc1cccc(C(F)(F)F)c1)N[C@H]1CCOC1=O [Compound E3],–,–,6.6,selective for CepR,–
O=C(CCc1ccc(I)cc1)N[C@H]1CCOC1=O [Compound E32],1.1 nM,97,97,–,–
O=C(CCc1ccc(C(F)(F)F)cc1)N[C@H]1CCOC1=O [Compound E35],0.18 nM,100,100,–,EC50 (nM) (CepR; Ec-reporter): sub-nanomolar
O=C(CCc1ccc([N+](=O)[O-])cc1)N[C@H]1CCOC1=O [Compound E37],0.19 nM,95,95,selective for CepR,EC50 (nM) (CepR; Ec-reporter): sub-nanomolar
